Assay [1] has as its target T1, M1 muscarinic receptor (Homo sapiens, UniProt P11229).
T1 construct: expressed in transfected cells; host or cells: CHO (M1-CHO)
T1 sequence (P11229 1-460): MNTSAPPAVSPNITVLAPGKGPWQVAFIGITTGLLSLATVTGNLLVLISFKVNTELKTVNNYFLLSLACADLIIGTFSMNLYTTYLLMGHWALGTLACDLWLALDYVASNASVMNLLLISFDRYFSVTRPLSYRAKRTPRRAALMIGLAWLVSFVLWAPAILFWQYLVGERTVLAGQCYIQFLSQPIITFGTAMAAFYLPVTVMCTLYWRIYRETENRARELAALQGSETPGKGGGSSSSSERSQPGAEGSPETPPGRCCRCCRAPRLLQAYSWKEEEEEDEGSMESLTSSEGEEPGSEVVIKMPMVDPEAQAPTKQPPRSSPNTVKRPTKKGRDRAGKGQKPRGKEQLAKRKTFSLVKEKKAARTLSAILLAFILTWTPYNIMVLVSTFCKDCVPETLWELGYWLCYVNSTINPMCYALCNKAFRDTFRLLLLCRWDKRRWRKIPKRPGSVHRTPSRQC
The assay can be described thus: Functional mobilization of intracellular calcium (FLIPR) in M1-CHO cells. The format is cell-based. The settings on record: M1-CHO cells, calcium mobilization (FLIPR); for Emax: read-out: M1 Efficacy. The gist of the method: (§1)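 Measured via Fluo-3 fluorescence on a FLIPR, CHO cells with either muscarinic subtype received compound in 0.5% DMSO. Antagonism was assessed after 15 min pre-incubation followed by carbachol at each subtype's EC80; agonism from compound addition alone.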
In general terms: A change in cytosolic calcium serves as a functional read-out for many receptors and channels.

Assay [2] has as its target T2, M4 muscarinic receptor (Homo sapiens, UniProt P08173).
T2 construct: expressed in transfected cells; host or cells: CHO (M4-CHO)
T2 sequence (P08173 1-479): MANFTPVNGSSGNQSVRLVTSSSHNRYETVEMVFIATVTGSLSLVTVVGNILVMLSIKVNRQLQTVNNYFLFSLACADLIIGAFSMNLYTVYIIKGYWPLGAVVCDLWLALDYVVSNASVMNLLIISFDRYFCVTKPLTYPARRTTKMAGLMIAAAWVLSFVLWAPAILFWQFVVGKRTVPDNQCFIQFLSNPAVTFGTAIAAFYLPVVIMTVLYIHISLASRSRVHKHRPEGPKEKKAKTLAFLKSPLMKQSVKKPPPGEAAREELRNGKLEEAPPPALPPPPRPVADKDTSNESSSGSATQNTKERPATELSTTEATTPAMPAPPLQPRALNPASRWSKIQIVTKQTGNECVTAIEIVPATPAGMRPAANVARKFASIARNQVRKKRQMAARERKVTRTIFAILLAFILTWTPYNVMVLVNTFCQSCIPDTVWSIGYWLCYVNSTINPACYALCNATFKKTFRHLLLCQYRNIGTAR
The assay can be described thus: Functional mobilization of intracellular calcium (FLIPR) in M4-CHO cells. The settings on record: M4-CHO cells, calcium mobilization (FLIPR); for Emax: read-out: M4 Efficacy. Type of assay: cell-based. The gist of the method: as §1

Each structure is given as a SMILES string.

As for `Cc1ccc2c(c1)C1(CCN(CC3CC4CCC3C4)CC1)CN2C(=O)OC(C)(C)C` (stereo not shown) [compound 382], the EC50 in assay [1] is less than 100 nM; in assay [2], greater than 1000 nM. In addition, the Emax in assay [1] and in assay [2] was 65 to 85% in each case.

`COC(=O)N1C2CCC1CC(N1CCC3(CC1)CN(S(C)(=O)=O)c1ccc(F)cc13)C2` (stereo not shown) [compound 383]: the EC50 in assay [1] is less than 100 nM; in assay [2], 100 to 1000 nM. Also, the results for the Emax in assay [1] and in assay [2] were 65 to 85% and less than 65%, respectively.

For the molecule `CCOC(=O)N1CCC(N2CCC3(CC2)CN(C(=O)c2ccccc2)c2ccc(F)cc23)CC1` [compound 384], in assay [1], the concentration for a half-maximal effect (EC50) was 100 to 1000 nM and the Emax is less than 65%. In assay [2], the EC50 was greater than 1000 nM and the Emax was less than 65%.

As to `CC(=O)CN1CC2(CCN(C[C@@H]3C[C@H]4C=C[C@H]3C4)CC2)c2cc(F)ccc21` [compound 385], in assay [1], the EC50 is 100 to 1000 nM and the Emax lay in the range of 65 to 85%. For the same molecule, in assay [2], the EC50 was greater than 1000 nM and the Emax was less than 65%.

For `CCCOC(=O)N1C2CCC1CC(N1CCC3(CC1)CN(C(=O)OC)c1ccc(F)cc13)C2` (stereo not shown) [compound 386], the EC50 in assay [1] and in assay [2] was 100 to 1000 nM each time. The Emax in assay [1] and in assay [2] was less than 65% in each case.

For `CC(=O)N1CC2(CCN(C3CCCCC3)CC2)c2cc(F)ccc21` [compound 387], in assay [1], the EC50 was less than 100 nM and the Emax fell in the range of 65 to 85%. For the same molecule, in assay [2], the EC50 was in the range of 100 to 1000 nM and the Emax is less than 65%.

Regarding `CS(=O)(=O)N1CC2(CCN(C3CC4CCC(C3)N4C(=O)O[C@H]3CCOC3)CC2)c2cc(F)ccc21` (stereo partly shown) [compound 388], in assay [1], the EC50 is less than 100 nM and the Emax fell in the range of 65 to 85%. Also, in assay [2], the EC50 is greater than 1000 nM and the Emax is less than 65%.

Consider `CCCOC(=O)N1C2CCC1CC(N1CCC3(CC1)CN(C(=O)C1CC1)c1ccc(F)cc13)C2` (stereo not shown) [compound 389], for which the EC50 in assay [1] was 100 to 1000 nM; in assay [2] it was greater than 1000 nM. The Emax in assay [1] was 65 to 85%; in assay [2], less than 65%.

Turning to `CCOC(=O)N1C2CCC1CC(N1CCC3(CC1)CN(C(=O)C(C)C)c1ccc(F)cc13)C2` (stereo not shown) [compound 390], the values for the EC50 in assay [1] and in assay [2] were less than 100 nM and greater than 1000 nM, respectively. Besides, the results for the Emax in assay [1] and in assay [2] were 65 to 85% and less than 65%, respectively.

Take `CCOC(=O)N1CCC(N2CCC3(CC2)CN(CCOC)c2ccc(F)cc23)CC1` [compound 391]: in assay [1], the EC50 was in the range of 100 to 1000 nM and the Emax is less than 65%. Besides, in assay [2], the EC50 is greater than 1000 nM and the Emax is less than 65%.

In the case of `CC(=O)NC1CC2(CCN(C[C@H]3C[C@H]4C=C[C@H]3C4)CC2)c2ccccc21` (stereo partly shown) [compound 392], the results for the EC50 in assay [1] and in assay [2] were less than 100 nM and greater than 1000 nM, respectively. Moreover, the results for the Emax in assay [1] and in assay [2] were 65 to 85% and less than 65%, respectively.

As to `CC(=O)N1CC2(CCN(CC3CCCCC3)CC2)c2cc(F)ccc21` [compound 393], in assay [1], the EC50 was less than 100 nM and the Emax was in the range of 65 to 85%. Moreover, in assay [2], the EC50 was greater than 1000 nM and the Emax is less than 65%.

With `CC(=O)N1CC2(CCN(C3CCN(C(=O)OCCF)C3)CC2)c2cc(F)ccc21` (stereo not shown) [compound 394], in assay [1], the EC50 was less than 100 nM and the Emax was less than 65%. Besides, in assay [2], the EC50 is 100 to 1000 nM and the Emax is less than 65%.

Regarding `CC(=O)N1CC2(CCN(C3CCCN(C(=O)OC(C)C)CC3)CC2)c2cc(F)ccc21` (stereo not shown) [compound 395], in assay [1], the EC50 was less than 100 nM and the Emax is less than 65%. In assay [2], the EC50 was greater than 1000 nM and the Emax was less than 65%.

For `CCOC(=O)N1CCC(N2CCC3(CC2)CN(C(=O)c2c(F)cccc2F)c2ccc(F)cc23)CC1` [compound 396], in assay [1], the EC50 fell in the range of 100 to 1000 nM and the Emax is less than 65%. Besides, in assay [2], the EC50 is greater than 1000 nM and the Emax was less than 65%.

With `Cc1ccc2c(c1)C1(CCN(C3CC4CCC(C4)C3)CC1)CN2` (stereo not shown) [compound 397], the EC50 in assay [1] was 100 to 1000 nM; in assay [2], greater than 1000 nM. Moreover, the Emax in assay [1] is 65 to 85%; in assay [2], less than 65%.

As for `CC(=O)N1CC2(CCN(C3CCN(C(=O)O[C@H]4CCOC4)CC3)CC2)c2cc(C)ccc21` [compound 398], the EC50 in assay [1] was 100 to 1000 nM; in assay [2] it was greater than 1000 nM. Also, the Emax in assay [1] and in assay [2] was less than 65% each time.

As to `CC(=O)N[C@H]1CC2(CCN(CC3CCN(C(=O)OC(C)C)CC3)CC2)c2ccccc21` [compound 399], in assay [1], the EC50 was 100 to 1000 nM and the Emax fell in the range of 65 to 85%. Also, in assay [2], the EC50 lay in the range of 100 to 1000 nM and the Emax is less than 65%.

`CCNC(=O)N1CC2(CCN(C3CC4CCC3C4)CC2)c2cc(C)ccc21` (stereo not shown) [compound 400]: in assay [1], the EC50 is greater than 1000 nM and the Emax is less than 65%. In assay [2], the EC50 is greater than 1000 nM and the Emax is less than 65%.

Take `CCOC(=O)N1CCC(N2CCC3(CC2)CN(C(=O)c2ccc4c(c2)OCO4)c2ccc(F)cc23)CC1` [compound 401]: in assay [1], the EC50 was less than 100 nM and the Emax fell in the range of 65 to 85%. In addition, in assay [2], the EC50 was greater than 1000 nM and the Emax was less than 65%.

As for `CC(C)OC(=O)N1C2CCC1CC(N1CCC3(CC1)CN(C(=O)O[C@@H]1CCOC1)c1ccc(F)cc13)C2` (stereo partly shown) [compound 402], in assay [1], the EC50 fell in the range of 100 to 1000 nM and the Emax is 65 to 85%. Besides, in assay [2], the EC50 was greater than 1000 nM and the Emax is less than 65%.

On to `CC(=O)N1CC2(CCN(CC3CCN(C(=O)O[C@@H]4CCOC4)CC3)CC2)c2cc(C)ccc21` [compound 403], for which, in assay [1], the half-maximal effective concentration (EC50) is less than 100 nM and the Emax is 65 to 85%. In assay [2], the EC50 was greater than 1000 nM and the Emax is less than 65%.

`CC(=O)N1CC2(CCN(CC3CCN(C(=O)OC(C)C)CC3)CC2)c2cc(C)ccc21` [compound 404]: in assay [1], the EC50 lay within 100 to 1000 nM and the Emax is less than 65%. In assay [2], the EC50 was greater than 1000 nM and the Emax is less than 65%.

On to `CCCOC(=O)N1C2CCC1CC(N1CCC3(CC1)CN(C(=O)OCCOC)c1ccc(F)cc13)C2` (stereo not shown) [compound 405], for which, in assay [1], the EC50 was 100 to 1000 nM and the Emax was less than 65%. In addition, in assay [2], the EC50 is greater than 1000 nM and the Emax is less than 65%.

In the case of `CCOC(=O)N1CCC(N2CCC3(CC2)CN(C(C)=O)c2ccc(-c4ccc(C(N)=O)cc4)cc23)CC1` [compound 406], the values for the EC50 in assay [1] and in assay [2] were 100 to 1000 nM and greater than 1000 nM, respectively. The Emax in assay [1] and in assay [2] was less than 65% each time.

For the molecule `C/C=C\c1ccc2c(c1)C1(CCN(C3CCN(C(=O)OCC)CC3)CC1)CN2C(C)=O` [compound 407], the EC50 in assay [1] is 100 to 1000 nM; in assay [2], greater than 1000 nM. The Emax in assay [1] and in assay [2] was less than 65% in each case.

With `CC(=O)NC1CC2(CCN(C[C@@H]3C[C@H]4C=C[C@H]3C4)CC2)c2ccccc21` (stereo partly shown) [compound 408], in assay [1], the EC50 is less than 100 nM and the Emax is 65 to 85%. Moreover, in assay [2], the EC50 was less than 100 nM and the Emax was in the range of 65 to 85%.

`CCOC(=O)N1C2CCC1CC(N1CCC3(CC1)CN(C(=O)OC1CCC1)c1ccc(F)cc13)C2` (stereo not shown) [compound 409]: the EC50 in assay [1] and in assay [2] was less than 100 nM in each case. Besides, the Emax in assay [1] and in assay [2] was greater than 85% in each case.

As to `CCOC(=O)N1CCC(N2CCC3(CC2)CN(C(=O)c2cccc(F)c2)c2ccc(F)cc23)CC1` [compound 410], the EC50 in assay [1] and in assay [2] was 100 to 1000 nM throughout. For the same molecule, the Emax in assay [1] and in assay [2] was less than 65% each time.

With `Cc1cc(C(=O)N2CC3(CCN(C4CC5CCC(C4)N5C(=O)O[C@H]4CCOC4)CC3)c3cc(F)ccc32)nn1C` (stereo partly shown) [compound 411], in assay [1], the EC50 was less than 100 nM and the Emax is less than 65%. In assay [2], the EC50 lay within 100 to 1000 nM and the Emax is less than 65%.

In the case of `COCCOC(=O)N1CCC(CN2CCC3(CC2)C[C@H](NC(C)=O)c2ccccc23)CC1` [compound 412], in assay [1], the EC50 was in the range of 100 to 1000 nM and the Emax is less than 65%. Also, in assay [2], the EC50 is greater than 1000 nM and the Emax is less than 65%.

A word on the EC50: it is the midpoint of the concentration-response curve.
